# pIC50: −log10 of the molar value. Calls of active or inactive are those of the source. The rule behind the calls is not given here.
# Key:
# Homo sapiens [1] = organism: Homo sapiens; assay: (§1) Inhibition of alpha-glucosidase (unknown origin) using PNPG as substrate incubated for 10 mins prior to substrate addition measured every 30 secs for 5 mins relative to control
# Homo sapiens [2] = organism: Homo sapiens; assay: Inhibition of alpha-glucosidase (unknown origin) using PNPG as substrate at 100 uM incubated for 10 mins prior to substrate addition measured every 30 secs for 5 mins relative to control
# Homo sapiens [3] = organism: Homo sapiens; assay: Binding affinity to alpha-glucosidase (unknown origin) assessed as loss in secondary structure at 50 to 250 uM measured every 1 sec for 1 to 2 mins by CD spectroscopic analysis
# [4] = as §1; design: species or system Homo sapiens
# Homo sapiens [5] = organism: Homo sapiens; assay: Ratio of compound activity to acarbose activity for inhibition of alpha-glucosidase (unknown origin)
# Rattus norvegicus = assay: Antihyperglycemic activity in sucrose-loaded STZ-induced diabetic rat model assessed as reduction in blood glucose level at 100 mg/kg, po administered 30 mins followed by sucrose administration measured after 5 hrs relative to vehicle-treated control; type: functional; design: scale not given: the % may be the effect or the level left
# Homo sapiens [6] = organism: Homo sapiens; assay: Non-competitive inhibition of alpha-glucosidase (unknown origin) using PNPG as substrate at 2 to 6 uM by Lineweaver-Burk plot analysis
Structure (SMILES),inhibition (Homo sapiens [1]),inhibition (Homo sapiens [2]) [%],also measured
"C=C(C)[C@@H]1CCC2(C)CC[C@]3(C)[C@@H](CC[C@@H]4[C@@]5(C)CC[C@H](OC(=O)c6ccc[n+](CCCCCCCCCCCC)c6)C(C)(C)[C@@H]5CC[C@]43C)[C@H]12 (single isomer, unassigned)",–,8.8,–
CC(C)=CC[n+]1cccc(C(=O)O[C@H]2CC[C@]3(C)[C@H]4CC=C5[C@@H]6[C@@H](C)[C@H](C)CC[C@]6(C)CC[C@@]5(C)[C@]4(C)CC[C@H]3C2(C)C)c1.[Br-],Dose-dependent effect,–,Activity (Homo sapiens [3]): Active; pIC50 [4]: 5.30; Ratio (Homo sapiens [5]): 10; Activity (Rattus norvegicus): 19.9%; inhibition (Homo sapiens [6]): Active
C=C(C)[C@@H]1CC[C@]2(C)CC[C@]3(C)[C@@H](CC[C@@H]4[C@@]5(C)CC[C@H](OC(=O)c6ccc[n+](CCCCCCCCCCCCCCCC)c6)C(C)(C)[C@@H]5CC[C@]43C)[C@H]12,–,4.5,–
C=C(C)[C@@H]1CC[C@]2(C)CC[C@]3(C)[C@@H](CC[C@@H]4[C@@]5(C)CC[C@H](OC(=O)c6ccc[n+](CC=C(C)C)c6)C(C)(C)[C@@H]5CC[C@]43C)[C@H]12,–,-4.4,–

# More lines, main results first:
inhibition (Homo sapiens [1]),inhibition (Homo sapiens [2]) [%],Structure (SMILES),also measured
Dose-dependent effect,–,CCCCCCCCCCCCC[n+]1cccc(C(=O)O[C@H]2CC[C@]3(C)[C@H]4CC=C5[C@@H]6[C@@H](C)[C@H](C)CC[C@]6(C)CC[C@@]5(C)[C@]4(C)CC[C@H]3C2(C)C)c1,–
Dose-dependent effect,–,CCCCCCCCCCCCCCCC[n+]1cccc(C(=O)O[C@H]2CC[C@]3(C)[C@H]4CC=C5[C@@H]6[C@@H](C)[C@H](C)CC[C@]6(C)CC[C@@]5(C)[C@]4(C)CC[C@H]3C2(C)C)c1,–
Dose-dependent effect,–,CCCCCCCCCCCC[n+]1cccc(C(=O)O[C@H]2CC[C@]3(C)[C@H]4CC=C5[C@@H]6[C@@H](C)[C@H](C)CC[C@]6(C)CC[C@@]5(C)[C@]4(C)CC[C@H]3C2(C)C)c1,–
–,3.8,C=C(C)[C@@H]1CC[C@]2(C)CC[C@]3(C)[C@@H](CC[C@@H]4[C@@]5(C)CC[C@H](OC(=O)c6ccc[n+](C/C=C(\C)CCC=C(C)C)c6)C(C)(C)[C@@H]5CC[C@]43C)[C@H]12,–
